Data as given in US20230295181A1, “INHIBITOR OF APOPTOSIS (IAP) PROTEIN ANTAGONISTS” (Sanford Burnham Prebys Medical Discovery Institute, priority 2020, published 2023).
Structures can show the parent of a compound that is named as a salt.

Test system: SKOV-3 cancer cell lines
Experiment: SKOV-3 cell viability after treatment with 10 μM test compound
Format: cell-based
Conditions: for % viability after treatment with 10 micromolar of test compound (SKOV-3 cells): 10 micromolar test compound; for viability at 10 µM: Homo sapiens, SK-OV-3, 10 micromolar test compound, SKOV-3 cells
Experimental: SKOV-3 cancer cell lines were treated with a test compound, either as a pure enantiomer or a mixture of stereoisomers, at a concentration of 10 μM. Cell viability was evaluated following treatment with a compound as disclosed in Table B. Viability of cancer cells following treatment is indicated according to the following legend:
A=0-25% viability B=26-50% viability C=>50% viability

SMILES | % viability after treatment with 10 micromolar of test compound (SKOV-3 cells) (hydrochloride) | viability at 10 µM [%] | also measured
C=CCC1(CC=C)C[C@@H]2OCC[C@H](NC(=O)[C@H](C)NC)C(=O)N2[C@@H]1C(=O)NC(c1ccccc1)c1ccccc1 [Compound 48, (4S)-8,8-diallyl-N-benzhydryl-4-((S)-2-(methylamino)propanamido)-5-oxooctahydropyrrolo[2,1-b][1,3]oxazepine-7-carboxamide hydrochloride] | C (C=>50% viability) | – | –
CN[C@@H](C)C(=O)N[C@H]1Cc2cc(OC)ccc2[C@H]2CC(C)(C)C(C(=O)N[C@@H]3CCCc4ccccc43)N2C1=O (some centres unmarked) [Compound 7] | – | – | % viability after treatment with 10 micromolar of test compound (SKOV-3 cells): B (B=26-50% viability)
C=CCC1(CC=C)C[C@@H]2SCC[C@H](NC(=O)[C@H](C)NC)C(=O)N2[C@H]1C(=O)N[C@@H]1CCCc2ccccc21 [Compound 28, (4S,9aS)-8,8-diallyl-4-((S)-2-(methylamino)propanamido)-5-oxo-N—((R)-1,2,3,4-tetrahydronaphthalen-1-yl)octahydropyrrolo[2,1-b][1,3]thiazepine-7-carboxamide hydrochloride] | – | 26 to 50 | –
C=CCC1(CC=C)C[C@@H]2SCC[C@H](NC(=O)[C@H](C)NC)C(=O)N2[C@@H]1C(=O)N[C@@H]1CCCc2ccccc21 [Compound 31, (4S,9aS)-8,8-diallyl-4-((S)-2-(methylamino)propanamido)-5-oxo-N—((R)-1,2,3,4-tetrahydronaphthalen-1-yl)octahydropyrrolo[2,1-b][1,3]thiazepine-7-carboxamide hydrochloride] | B (B=26-50% viability) | – | –
C=CCC1C[C@@H]2OCC[C@H](NC(=O)[C@H](C)NC)C(=O)N2[C@H]1C(=O)N[C@@H]1CCCc2ccccc21 (stereo partly drawn) [Compound 13, (4S,9aS)-8,8-allyl-4-((S)-2-(methylamino)propanamido)-5-oxo-N—((R)-1,2,3,4-tetrahydronaphthalen-1-yl)octahydropyrrolo[2,1-b][1,3]oxazepine-7-carboxamide hydrochloride] | – | 26 to 50 | –
CCC1C[C@@H]2OCC[C@H](NC(=O)[C@H](C)NC)C(=O)N2C1C(=O)N[C@@H]1CCCc2ccccc21 (stereo partly drawn) [Compound 20, (4S)-8,8-ethyl-4-((S)-2-(methylamino)propanamido)-5-oxo-N—((R)-1,2,3,4-tetrahydronaphthalen-1-yl)octahydropyrrolo[2,1-b][1,3]oxazepine-7-carboxamide hydrochloride] | – | 26 to 50 | –
CN[C@@H](C)C(=O)N[C@H]1CCS[C@H]2CC(C)(C)[C@@H](C(=O)N[C@H](CCC(=O)O)c3ccccc3)N2C1=O [Compound 77, (R)-4-((4S,7S,9aS)-8,8-dimethyl-4-((S)-2-(methylamino)propanamido)-5-oxooctahydropyrrolo[2,1-b][1,3]thiazepine-7-carboxamido)-4-phenylbutanoic acid hydrochloride] | – | 26 to 50 | –
CCC1(CC)C[C@@H]2OCC[C@H](NC(=O)[C@H](C)NC)C(=O)N2[C@H]1C(=O)N[C@@H]1CCCc2ccccc21 [Compound 19, (4S)-8,8-diethyl-4-((S)-2-(methylamino)propanamido)-5-oxo-N—((R)-1,2,3,4-tetrahydronaphthalen-1-yl)octahydropyrrolo[2,1-b][1,3]oxazepine-7-carboxamide hydrochloride] | – | 26 to 50 | –
CN[C@@H](C)C(=O)N[C@H]1CCS[C@H]2CC(C(C)C)(C(C)C)[C@@H](C(=O)N[C@@H]3CCCc4ccccc43)N2C1=O [Compound 43, 4S,9aS)-8,8-diisopropyl-4-((S)-2-(methylamino)propanamido)-5-oxo-N—((R)-1,2,3,4-tetrahydronaphthalen-1-yl)octahydropyrrolo[2,1-b][1,3]thiazepine-7-carboxamide hydrochloride] | C (C=>50% viability) | – | –
C=CCC1(CC=C)C[C@@H]2OCC[C@H](NC(=O)[C@H](C)NC)C(=O)N2C1C(=O)N[C@@H]1CCCc2ccccc21 (stereo partly drawn) [Compound 12, (4S,9aS)-8,8-diallyl-4-((S)-2-(methylamino)propanamido)-5-oxo-N—((R)-1,2,3,4-tetrahydronaphthalen-1-yl)octahydropyrrolo[2,1-b][1,3]oxazepine-7-carboxamide hydrochloride] | – | 26 to 50 | –
CN[C@@H](C)C(=O)N[C@H]1CCO[C@H]2CC(C)(C)[C@@H](CN[C@@H]3CCSc4ccccc43)N2C1=O [Compound 68, (S)—N-((4S,7S,9aS)-8,8-dimethyl-5-oxo-7-((((R)-thiochroman-4-yl)amino)methyl)octahydropyrrolo[2,1-b][1,3]oxazepin-4-yl)-2-(methylamino)propanamide dihydrochloride] | – | – | % viability after treatment with 10 micromolar of test compound (SKOV-3 cells) (dihydrochloride): C (C=>50% viability)
CN[C@@H](C)C(=O)N[C@H]1CCS[C@H]2CC(C(C)C)(C(C)C)[C@@H](C(=O)N[C@@H]3CCCc4ccccc43)N2C1=O [Compound 40, 4S,9aS)-8,8-diisopropyl-4-((S)-2-(methylamino)propanamido)-5-oxo-N—((R)-1,2,3,4-tetrahydronaphthalen-1-yl)octahydropyrrolo[2,1-b][1,3]thiazepine-7-carboxamide hydrochloride] | C (C=>50% viability) | – | –
CCC1(CC)C[C@@H]2SCC[C@H](NC(=O)[C@H](C)NC)C(=O)N2[C@@H]1C(=O)N[C@@H]1CCCc2ccccc21 [Compound 37, (4S,9aS)-8,8-diethyl-4-((S)-2-(methylamino)propanamido)-5-oxo-N—((R)-1,2,3,4-tetrahydronaphthalen-1-yl)octahydropyrrolo[2,1-b][1,3]thiazepine-7-carboxamide hydrochloride] | B (B=26-50% viability) | – | –
CN[C@@H](C)C(=O)N[C@H]1CCO[C@H]2CC(CCc3ccccc3)(CCc3ccccc3)C(C(=O)N[C@@H]3CCCc4ccccc43)N2C1=O (stereo partly drawn) [Compound 23, (4S,9aS)-4-((S)-2-(methylamino)propanamido)-5-oxo-8,8-diphenethyl-N—((R)-1,2,3,4-tetrahydronaphthalen-1-yl)octahydropyrrolo[2,1-b][1,3]oxazepine-7-carboxamide hydrochloride] | – | 26 to 50 | –
CN[C@@H](C)C(=O)N[C@H]1CCO[C@H]2CC(C)(C)C(c3nc4ccccc4o3)N2C1=O (stereo partly drawn) [Compound 72, (2S)—N-((4S,9aS)-7-(benzo[d]oxazol-2-yl)-8,8-dimethyl-5-oxooctahydropyrrolo[2,1-b][1,3]oxazepin-4-yl)-2-(methylamino)propanamide hydrochloride] | – | > 50 | –
CN[C@@H](C)C(=O)N[C@H]1Cc2cc(OC)ccc2[C@H]2CC(C)(C)C(C(=O)NC(c3ccccc3)c3ccccc3)N2C1=O (stereo partly drawn) [Compound 5, (6S,11bR)—N-benzhydryl-9-methoxy-2,2-dimethyl-6-((S)-2-(methylamino)propanamido)-5-oxo-2,3,5,6,7,11b-hexahydro-1H-benzo[c]pyrrolo[1,2-a]azepine-3-carboxamide] | – | > 50 | –
CN[C@@H](C)C(=O)N[C@H]1Cc2cc(OC)ccc2[C@H]2CC(C)(C)C(C(=O)N[C@@H]3CCCc4ccccc43)N2C1=O (some centres unmarked) [Compound 34] | – | – | % viability after treatment with 10 micromolar of test compound (SKOV-3 cells): C (C=>50% viability)
CN[C@@H](C)C(=O)N[C@H]1CCS[C@H]2CC(C)(C)[C@@H](C(=O)N[C@H]3c4ccccc4C[C@H]3OCCF)N2C1=O [Compound 78, (4S,7S,9aS)—N-((1S,2R)-2-(2-fluoroethoxy)-2,3-dihydro-1H-inden-1-yl)-8,8-dimethyl-4-((S)-2-(methylamino)propanamido)-5-oxooctahydropyrrolo[2,1-b][1,3]thiazepine-7-carboxamide hydrochloride] | – | 0 to 25 | –
CN[C@@H](C)C(=O)N[C@H]1Cc2c([nH]c3ccccc23)[C@H]2CC(C)(C)[C@@H](C(=O)NC(c3ccccc3)c3ccccc3)N2C1=O [Compound 54, (6S)—N-benzhydryl-2,2-dimethyl-6-((S)-2-(methylamino)propanamido)-5-oxo-1,2,3,5,6,7,12,12b-octahydropyrrolo[1′,2′:1,2]azepino[3,4-b]indole-3-carboxamide hydrochloride] | – | > 50 | –
CN[C@@H](C)C(=O)N[C@H]1CCO[C@H]2CC(C(C)C)(C(C)C)[C@@H](C(=O)NC(c3ccccc3)c3ccccc3)N2C1=O [Compound 61, (4S)—N-benzhydryl-8,8-diisopropyl-4-((S)-2-(methylamino)propanamido)-5-oxooctahydropyrrolo[2,1-b][1,3]oxazepine-7-carboxamide hydrochloride] | B (B=26-50% viability) | – | –
CN[C@@H](C)C(=O)N[C@H]1CCO[C@H]2CC(CCc3ccccc3)(CCc3ccccc3)[C@@H](C(=O)N[C@@H]3CCCc4ccccc43)N2C1=O [Compound 25, (4S,9aS)-4-((S)-2-(methylamino)propanamido)-5-oxo-8,8-diphenethyl-N—((R)-1,2,3,4-tetrahydronaphthalen-1-yl)octahydropyrrolo[2,1-b][1,3]oxazepine-7-carboxamide hydrochloride] | B (B=26-50% viability) | – | –
CCC1(CC)C[C@@H]2OCC[C@H](NC(=O)[C@H](C)NC)C(=O)N2[C@@H]1C(=O)NC(c1ccccc1)c1ccccc1 [Compound 58, (4S)—N-benzhydryl-8,8-diethyl-4-((S)-2-(methylamino)propanamido)-5-oxooctahydropyrrolo[2,1-b][1,3]oxazepine-7-carboxamide hydrochloride] | B (B=26-50% viability) | – | –
C=CCC1C[C@@H]2SCC[C@H](NC(=O)[C@H](C)NC)C(=O)N2[C@@H]1C(=O)N[C@@H]1CCCc2ccccc21 (stereo partly drawn) [Compound 27, (4S,9aS)-8,8-allyl-4-((S)-2-(methylamino)propanamido)-5-oxo-N—((R)-1,2,3,4-tetrahydronaphthalen-1-yl)octahydropyrrolo[2,1-b][1,3]thiazepine-7-carboxamide hydrochloride] | B (B=26-50% viability) | – | –
